Laboratory results: patent US11186577B2, “Vasopressin receptor antagonists and products and methods related thereto” (BlackThorn Therapeutics, Inc., priority 2017, dated 2021)

Columns and labels:
[1] = target: human Arginine Vasopressin Receptor V2 (AVPR2) (Homo sapiens (Human), UniProt P30518); assay: Vasopressin V2 receptor antagonist assay (cAMP TR-FRET, 1321N1 cells); type: cell-based
[2] = target: human Oxytocin Receptor (hOTR) (Homo sapiens (Human), UniProt P30559); assay: Oxytocin receptor antagonist assay (oxytocin-evoked calcium, FLIPR, CHEM-1-hOTR cells); type: cell-based; settings: read-out: OT IC50
Summary of the method: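 Antagonist mode in CHEM-1-hOTR cells loaded with Calcium-6 dye; compounds (10-point, 1:3 series) preincubated 15 min at 37 °C, then oxytocin added at daily-determined EC80 in HBSS/20 mM HEPES with 0.1% BSA. Fluorescence (ex 470-495, em 515-575 nm) followed 3 min on FLIPR^TETRA; concentration-dependent reduction of oxytocin response measured.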

Chain of human Arginine Vasopressin Receptor V2 (AVPR2) (P30518 whole entry): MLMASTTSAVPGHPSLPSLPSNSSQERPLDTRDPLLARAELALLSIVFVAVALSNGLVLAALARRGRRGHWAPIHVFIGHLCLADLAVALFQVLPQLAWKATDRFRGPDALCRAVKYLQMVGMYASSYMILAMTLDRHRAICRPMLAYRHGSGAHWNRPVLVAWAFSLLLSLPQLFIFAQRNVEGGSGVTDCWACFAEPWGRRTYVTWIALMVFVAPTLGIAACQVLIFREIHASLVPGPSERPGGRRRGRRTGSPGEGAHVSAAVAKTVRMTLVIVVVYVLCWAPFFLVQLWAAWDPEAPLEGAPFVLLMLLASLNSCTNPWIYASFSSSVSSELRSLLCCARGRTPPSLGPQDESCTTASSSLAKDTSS
Chain of human Oxytocin Receptor (hOTR) (P30559 whole entry): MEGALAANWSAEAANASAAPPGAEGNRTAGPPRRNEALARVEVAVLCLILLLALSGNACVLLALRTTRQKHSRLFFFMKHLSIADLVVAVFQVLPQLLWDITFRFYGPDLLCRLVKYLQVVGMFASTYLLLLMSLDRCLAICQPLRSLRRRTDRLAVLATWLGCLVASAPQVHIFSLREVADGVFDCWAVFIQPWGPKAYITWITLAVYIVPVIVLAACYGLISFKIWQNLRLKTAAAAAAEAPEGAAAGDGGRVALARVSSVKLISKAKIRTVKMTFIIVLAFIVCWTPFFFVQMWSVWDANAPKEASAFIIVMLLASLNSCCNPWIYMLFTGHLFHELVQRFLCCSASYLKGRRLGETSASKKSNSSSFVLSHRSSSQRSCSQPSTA

SMILES	IC50 [1]	IC50 [2]
COC(=O)N1Cc2cc(Cl)ccc2-n2c(C3CC4(C3)CN(c3ccc(F)cn3)C4)nnc2C1C (single isomer, unassigned) [142A]	> 1 µM	> 1 µM
Clc1ccc2c(c1)CN(C1CC1)Cc1nnc(C3CC4(C3)CN(c3ccccn3)C4)n1-2 [compound 56]	0.1 to 0.5 µM	0.5 to 1 µM
CC(C)OC(=O)N1Cc2cc(Cl)ccc2-n2c(C3CC4(C3)CN(c3ncccn3)C4)nnc2C1C (single isomer, unassigned) [Cpd 167A]	> 1 µM	0.5 to 1 µM
CC(CF)N1Cc2cc(Cl)ccc2-n2c(nnc2C2CC3(C2)CN(c2ccccn2)C3)C1 (stereo not shown) [compound 58]	0.5 to 1 µM	> 1 µM
CC(C)OC(=O)N1Cc2cc(Cl)ccc2-n2c(nnc2C2CC3(C2)CN(C(=O)C2CC2)C3)C1 [compound 153]	> 1 µM	> 1 µM
CC(C)C(=O)N1Cc2cc(Cl)ccc2-n2c(nnc2C2CC3(C2)CN(c2ccccn2)C3)C1 [compound 71]	> 1 µM	> 1 µM
CN1Cc2cc(Cl)ccc2-n2c(nnc2C2CC3(C2)CN(c2ncccc2F)C3)C1 [compound 4]	> 1 µM	> 1 µM
CC1c2nnc(C3CC4(C3)CN(c3ccc(F)cn3)C4)n2-c2ccc(Cl)cc2CN1C(=O)C1(F)CC1 (stereo not shown) [compound 174]	> 1 µM	0.5 to 1 µM
O=C(OC1CC1)N1Cc2cc(Cl)ccc2-n2c(nnc2C2CC3(C2)CN(c2ccc(F)cn2)C3)C1 [compound 90]	> 1 µM	0.1 to 0.5 µM
CC(C)N1Cc2cc(Cl)ccc2-n2c(nnc2C2CC3(C2)CN(c2cnccn2)C3)C1 [compound 47]	> 1 µM	> 1 µM
CC1c2nnc(C3CC4(C3)CN(c3ccc(F)cn3)C4)n2-c2ccc(Cl)cc2CN1C(=O)C1(F)CC1 (single isomer, unassigned) [Cpd 174A]	> 1 µM	0.1 to 0.5 µM
O=C(OC(CF)CF)N1Cc2cc(Cl)ccc2-n2c(nnc2C2CC3(C2)CN(c2ccc(F)cn2)C3)C1 [compound 79]	0.5 to 1 µM	0.1 to 0.5 µM
COC(=O)N1Cc2cc(Cl)ccc2-n2c(C3CC4(C3)CN(c3cccc(C)n3)C4)nnc2C1C (stereo not shown) [compound 180]	0.1 to 0.5 µM	0.1 to 0.5 µM
CC1c2nnc(C3CC4(C3)CN(c3ncc(F)cn3)C4)n2-c2ccc(Cl)cc2CN1C(=O)OC1CC1 (single isomer, unassigned) [Cpd 192A]	> 1 µM	> 1 µM
CC1c2nnc(C3CC4(C3)CN(c3ncccn3)C4)n2-c2ccc(Cl)cc2CN1C(=O)OC1CC1 (single isomer, unassigned) [Cpd 171A]	> 1 µM	> 1 µM
COC(=O)N1Cc2cc(Cl)ccc2-n2c(C3CC4(C3)CN(c3ccc(F)cn3)C4)nnc2C1C (stereo not shown) [compound 142, methyl 8-chloro-1-(2-(5-fluoropyridin-2-yl)-2-azaspiro[3.3]heptan-6-yl)-4-methyl-4H-benzo[f][1,2,4]triazolo[4,3-a][1,4]diazepine-5(6H)-carboxylate]	> 1 µM	0.5 to 1 µM

SMILES	IC50 [1]	IC50 [2]
CN1Cc2cc(Cl)ccc2-n2c(nnc2C2CC3(C2)CN(c2cccc(F)n2)C3)C1 [compound 8]	> 1 µM	> 1 µM
CC(CF)OC(=O)N1Cc2cc(Cl)ccc2-n2c(nnc2C2CC3(C2)CN(c2ccc(F)cn2)C3)C1 (stereo not shown) [compound 78]	0.1 to 0.5 µM	0.1 to 0.5 µM
CCC(=O)N1Cc2cc(Cl)ccc2-n2c(nnc2C2CC3(C2)CN(c2ccccn2)C3)C1 [compound 67]	> 1 µM	> 1 µM
CN1Cc2cc(Cl)ccc2-n2c(nnc2C2CC3(C2)CN(c2ccc(F)cn2)C3)C1 [compound 1, 8-chloro-1-(2-(5-fluoropyridin-2-yl)-2-azaspiro[3.3]heptan-6-yl)-5-methyl-5,6-dihydro-4H-benzo[f][1,2,4]triazolo[4,3-a][1,4]diazepine]	> 1 µM	> 1 µM
CC(C)OC(=O)N1Cc2cc(Cl)ccc2-n2c(C3CC4(C3)CN(c3ncccn3)C4)nnc2C1C (stereo not shown) [compound 167]	> 1 µM	> 1 µM
COC(=O)N1Cc2cc(Cl)ccc2-n2c(C3CC4(C3)CN(c3ncccn3)C4)nnc2C1C (stereo not shown) [compound 166]	> 1 µM	> 1 µM
O=C(C(F)F)N1Cc2cc(Cl)ccc2-n2c(nnc2C2CC3(C2)CN(C(=O)C2(F)CC2)C3)C1 [compound 134]	> 1 µM	> 1 µM
CN1Cc2cc(Cl)ccc2-n2c(nnc2C2CC3(C2)CN(c2ccccn2)C3)C1 [compound 2]	> 1 µM	> 1 µM
O=C(C(F)F)N1Cc2cc(Cl)ccc2-n2c(nnc2C2CC3(C2)CN(c2ccccn2)C3)C1 [compound 122]	0.1 to 0.5 µM	> 1 µM
CC1c2nnc(C3CC4(C3)CN(c3cnccn3)C4)n2-c2ccc(Cl)cc2CN1C(=O)C1(F)CC1 (stereo not shown) [compound 177]	> 1 µM	> 1 µM
Fc1ccc(N2CC3(CC(c4nnc5n4-c4ccc(Cl)cc4CN(C4CCC4)C5)C3)C2)nc1 [compound 42]	< 0.1 µM	0.5 to 1 µM
CCOC(=O)N1Cc2cc(Cl)ccc2-n2c(C3CC4(C3)CN(c3ncc(F)cn3)C4)nnc2C1C (stereo not shown) [compound 172]	> 1 µM	> 1 µM
FC(F)CN1Cc2cc(Cl)ccc2-n2c(nnc2C2CC3(C2)CN(c2ccccn2)C3)C1 [compound 52]	0.1 to 0.5 µM	0.5 to 1 µM
CC1c2nnc(C3CC4(C3)CN(c3ccc(F)cn3)C4)n2-c2ccc(Cl)cc2CN1C(=O)OC(CF)CF (single isomer, unassigned) [Cpd 203A]	0.5 to 1 µM	0.1 to 0.5 µM
CC(C)N1Cc2cc(Cl)ccc2-n2c(nnc2C2CC3(C2)CN(c2ncccc2F)C3)C1 [compound 54]	0.5 to 1 µM	> 1 µM
CN1Cc2cc(Cl)ccc2-n2c(nnc2C2CC3(C2)CN(c2cnccn2)C3)C1 [compound 3]	> 1 µM	> 1 µM
